Our source for the TGI and GI50 values is PubChem BioAssay (NCI).

SMILES strings stand for the structures.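 Step 1: Grow cells in 96-well plates. Step 2: Expose to compound for 48 hours at 5 concentrations. Step 3: Interpolate endpoints linearly; if unreached, use highest concentration. GI50 is the concentration that inhibits growth by half. TGI marks complete inhibition of growth.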 Some results are limits rather than exact numbers.

Some test systems named below: 786-0 renal; HCT-15 colon; KM12 colon; MCF7 breast; LOX IMVI melanoma; MOLT-4 leukemia; A498 renal; MDA-MB-435; SNB-75 CNS; SF-268 CNS.
Experiment in all cases: inhibition of tumour cell growth, NCI panel, 48 h

With `Clc1ccc2ns[s+]c2c1`, the TGI with 786-0 renal was over 100 µM; with HCT-15 colon, over 100 µM; in the test with KM12 colon, over 100 µM; in the test on MCF7 breast, over 100 µM; in the test on LOX IMVI melanoma, over 84 µM; in the test with MOLT-4 leukemia it was over 100 µM. The TGI in the test on A498 renal, with MDA-MB-435, with SNB-75 CNS and in the test on SF-268 CNS was over 100 µM in each case.

With `Nc1cc2[nH]cnc2c(=O)[nH]1`, the TGI with 786-0 renal, in the test with HCT-15 colon, with KM12 colon, with MCF7 breast, in the test on LOX IMVI melanoma and with MOLT-4 leukemia was over 300 µM throughout. The TGI in the test on A498 renal was 298 µM; with MDA-MB-435, over 300 µM; in the test on SNB-75 CNS, over 300 µM; in the test on SF-268 CNS, over 300 µM.

For the compound `O=C(N/N=C/c1ccc(Cl)cc1)c1[nH]c2ccc(Cl)cc2c1-c1ccccc1`, the GI50 was 0.294 µM in the test with 786-0 renal; 0.255 µM in the test on HCT-15 colon; 0.181 µM in the test with KM12 colon; 0.115 µM in the test with MCF7 breast; 0.12 µM with LOX IMVI melanoma; 0.108 µM in the test with MOLT-4 leukemia. Besides, the GI50 with A498 renal was 15.4 µM; with MDA-MB-435 it was 0.245 µM; in the test on SNB-75 CNS, 1.02 µM; in the test with SF-268 CNS it was 0.161 µM. The TGI with 786-0 renal was over 34.7 µM; in the test with KM12 colon, 0.568 µM; in the test with MCF7 breast, 21.7 µM; in the test with LOX IMVI melanoma it was over 37.4 µM; in the test with MOLT-4 leukemia it was over 32 µM; in the test on A498 renal, over 100 µM. Also, the TGI in the test with MDA-MB-435 is 0.72 µM; in the test with SNB-75 CNS, over 51.2 µM; in the test on SF-268 CNS, over 42.3 µM.

As for `CCCCCCCCCCCCCCCCCCNC(=O)OCC(CNS(=O)(=O)CCC[n+]1cccc2ccccc21)COC` (stereo unspecified), the TGI in the test with 786-0 renal is over 43.5 µM; in the test on HCT-15 colon it was 59.2 µM; with MCF7 breast, 3.68 µM; with MOLT-4 leukemia, over 100 µM; in the test with A498 renal it was 64.9 µM; with MDA-MB-435, 4.94 µM. Further, the TGI with SNB-75 CNS was 6.84 µM; with SF-268 CNS, over 20.4 µM.

On to `CNCCNc1nc2ccccc2c2c(=O)c3cc(F)ccc3sc12`, for which the GI50 in the test with 786-0 renal was 1.59 µM; with HCT-15 colon, 1.65 µM; in the test with KM12 colon, 1.74 µM; with MCF7 breast, 1.67 µM; in the test with LOX IMVI melanoma, 1.57 µM; with MOLT-4 leukemia it was 1.72 µM. Further, the GI50 was 2.05 µM in the test with A498 renal, 1.71 µM with MDA-MB-435, 1.58 µM in the test on SNB-75 CNS and 1.69 µM in the test with SF-268 CNS. The TGI in the test with 786-0 renal was 3.09 µM; in the test with HCT-15 colon, 3.26 µM; in the test on KM12 colon, 3.25 µM; in the test with MCF7 breast, 3.31 µM; with LOX IMVI melanoma, 2.98 µM; in the test with MOLT-4 leukemia, 3.5 µM. The TGI was determined as 6.96 µM in the test with A498 renal, 3.22 µM with MDA-MB-435, 5.6 µM in the test on SNB-75 CNS and 4.17 µM in the test with SF-268 CNS.

Turning to `CC[C@]1(O)C[C@@H]2CN(CCc3c([nH]c4ccccc34)[C@@](C(=O)OC)(c3cc4c(cc3OC)N(C)[C@H]3[C@@](O)(C(N)=O)[C@H](O)[C@]5(CC)[C@@H]6C[C@@H]6CN6CC[C@]43[C@@H]65)C2)C1`, the GI50 with 786-0 renal is 0.0247 µM; with HCT-15 colon, 0.148 µM; in the test on KM12 colon, under 0.00333 µM; with MCF7 breast, under 0.00333 µM; with LOX IMVI melanoma it was under 0.00333 µM; in the test with MOLT-4 leukemia, under 0.00333 µM. Also, the GI50 is 0.00466 µM in the test with A498 renal, under 0.00333 µM in the test on MDA-MB-435, under 0.00333 µM with SNB-75 CNS and 0.00352 µM with SF-268 CNS. For the same compound, the TGI was over 19.3 µM with 786-0 renal; over 21.4 µM with HCT-15 colon; over 29.8 µM in the test on KM12 colon; over 18.2 µM in the test on MCF7 breast; over 33.3 µM with LOX IMVI melanoma; over 33.3 µM in the test with MOLT-4 leukemia. Moreover, the TGI was 0.243 µM in the test with A498 renal, under 0.00333 µM in the test with MDA-MB-435, 20.6 µM in the test with SNB-75 CNS and over 33.3 µM in the test with SF-268 CNS.

Turning to `COc1nc(C)cc2c(=O)n(-c3ccccc3)n(CC(O)CN3CCN(c4ccc(Cl)cc4)CC3)c(=O)c12` (stereo unspecified), the GI50 in the test on 786-0 renal is 25.8 µM; with HCT-15 colon it was over 50 µM; in the test on KM12 colon, over 50 µM; in the test with MCF7 breast, 46.1 µM; in the test on LOX IMVI melanoma, over 50 µM; in the test on MOLT-4 leukemia, over 50 µM. In addition, the GI50 in the test with A498 renal is over 50 µM; in the test with MDA-MB-435 it was over 50 µM; in the test with SNB-75 CNS, 10.1 µM; with SF-268 CNS it was 24.8 µM. For the same compound, the TGI in the test with 786-0 renal, in the test on HCT-15 colon, with KM12 colon, with MCF7 breast, with LOX IMVI melanoma and in the test with MOLT-4 leukemia was over 50 µM in each case. The TGI with A498 renal is over 50 µM; with MDA-MB-435, over 50 µM; in the test with SNB-75 CNS, 27.8 µM; in the test on SF-268 CNS, over 50 µM.

With `Cc1cc(=O)oc2cc(OC(=O)N(CCCl)CCCl)ccc12`, the TGI in the test on 786-0 renal, in the test on HCT-15 colon, in the test with KM12 colon, in the test on MCF7 breast, in the test on LOX IMVI melanoma and in the test with MOLT-4 leukemia was over 100 µM each time. Moreover, the TGI with A498 renal, with MDA-MB-435, with SNB-75 CNS and in the test on SF-268 CNS was over 100 µM in each case.

`CC1(C)C(=O)C=CC2(C)C1CC(O)C1(C)C2CCC2(C)C(c3ccoc3)OC(=O)C3OC321` (stereo unspecified): the TGI with 786-0 renal is 28.3 µM; in the test with HCT-15 colon it was 23.6 µM; in the test with KM12 colon, 28.7 µM; in the test with MCF7 breast, over 100 µM; with LOX IMVI melanoma it was 38.9 µM; in the test on MOLT-4 leukemia, 27.2 µM. Moreover, the results for the TGI in the test on A498 renal, with MDA-MB-435 and in the test with SNB-75 CNS were 28.8 µM, 72.7 µM and 39.5 µM, respectively.
